Columns and labels:
NF-κB = NF-κB luciferase reporter assay in RAW 264.7 macrophages; type: cell-based; conditions: Mus musculus, RAW264.7; RAW 264.7 3×NF-κB luciferase reporter cells, 2 hour pretreatment, 200 ng/ml LPS for 3 hours; read-out: NF-kB inhibitory activity IC50
Protocol: RAW 264.7 cells stably expressing a 3×NF-κB response element-drive luciferase reporter were seeded into 96 well plates in sera-free medium (Optimem) 18 hours prior to compound application. Compounds of the invention were prepared by first making 100 mM stock solutions in EtOH. Stock solutions were then diluted 1:100 in low LPS FBS (Gemini BenchMark 100-106), mixed vigorously and allowed to incubate at room temperature for 30 minutes. 1:2 serial dilutions were then made in FBS supplemented with 1% EtOH, mixed vigorously, and again allowed to incubate at room temperature for 30 minutes before adding to RAW 264.7 reporter cells (final concentrations: 10% FBS, 100 uM highest compound dilution, 0.1% EtOH) for a 2 hour pretreatment prior to stimulation with LPS. Cells were then stimulated with 200 ng/ml LPS or vehicle control for 3 hours in the presence of the compounds of the invention. A set of six vehicles was left unstimulated with LPS in order to measure the assay floor. AlamarBlue viability dye (Invitrogen) was added to cells simultaneously with the delivery of LPS (final AlamarBlue concentration of 10%). After the 3 h incubation period with LPS, cell viability was measured by reading fluorescence (excitation 550 nm, emission 595 nm) with a Perkin Elmer Victor V plate reader. Then cell media was aspirated from each well. Luciferase signal was then developed by addition of the Britelite Plus reagent (Perkin Elmer). Luciferase activity was measured with the Perkin Elmer Victor V plate reader. NF-κB activity was expressed as a percent of the vehicle control wells (stimulated with LPS). Compounds were tested at 6 dose point titrations in triplicate to determine IC50 values. Table 1 summarizes the IC50 values for a number of fatty acid amides in this NF-κB luciferase reporter assay.

[1] = test system: Cystinotic fibroblasts (cell line GM00008, Coriell Cell Repository); experiment: cystinotic fibroblast assay (cystine depletion, LC-MS/MS); type: cell-based; conditions: 50 μM, cells incubated 24 hours, cystine by LC-MS/MS, percentage of control (POC)
Source text: Nephropathic cystinosis is an orphan genetic lysosomal storage disorder characterized by a massive accumulation of crystalline cystine within cells. Affected individuals develop a proximal renal tubulopathy and progress, if untreated, to end-stage renal failure. Omran et al (Bioorg. Med. Chem. 2011, p, 3492) described a convenient in vitro system to quickly evaluate compounds that could deplete levels of cystine in cultured fibroblasts. Cystinotic fibroblasts (cell line GM00008, Coriell Cell Repository) were seeded in a 6-well plate and grown in DMEM/15% FBS until confluent. […] Protein quantification was accomplished by dissolving precipitated protein in 0.25 M NaOH and 1 M Tris (pH 7.5), and spectrophotometric measurement using the Bradford method. Compound I-9 was evaluated in this cystinotic fibroblast assay. The level of cystine in this cystinotic cell line was quantitated by LC-MS/MS. […] The level of cystine was expressed as the percentage of control (POC). […] The cystine level was determined as follows: To the 50 μL of supernatant, acetonitrile (400 μL) containing 200 ng/ml Internal standard (deuterated cystine) was added and mixture was vortexed for 1 min followed by centrifugation for 10 minutes. […] The concentration of Cystine was measured by LC-MS/MS. […]

IL-1β = IL-1β gene expression in LPS-stimulated RAW264.7 macrophages; type: cell-based; conditions: RAW264.7, 2 hours pre-incubation, 100 ng/ml LPS 3 hours, relative to vehicle only control, FIG. 1
Protocol: RAW264.7 macrophages were seeded at a density of 100,000 cells/well in a 96-well plate in DMEM supplemented with 10% FBS and Penn/strep. 16 hours later, medium was aspirated and replaced with 90 μL/well of serum-free DMEM. Fatty acid amides were brought up in 100% EtOH to a concentration of 100 mM and then diluted 1:100 in 100% FBS for a stock solution consisting of 1 mM compound and 1% EtOH. These stock solutions were then diluted 1:10 in FBS supplemented with 1% EtOH to generate a 100 μM of the fatty acid amide. 10 μL was then added to the RAW246.7 cells to generate final concentrations 10 μM of the fatty acid amide or 10 μM each DHA and MMF, along with vehicle only control. The compounds were allowed to pre-incubate for 2 hours before stimulation of 100 ng/ml LPS (10 μL of 1 μg/ml LPS was added to each well). Following 3 hours of LPS stimulation, cells were washed once in 1×PBS, aspirated dry, and flash frozen in liquid nitrogen. […] IL-1β transcript levels were then measured using Taqman primer/probe assay sets (Applied Biosystems), normalized to GAPDH using the deltaCt method, and the data expressed relative to vehicle only control. FIG. 1 summarizes the IL-1β gene expression data on compound I-57 (cellular toxicity was assessed using alamar blue as indicator, abbreviated in the figure as AB). […]

Hmox1 = Hmox1 target gene expression in LPS-stimulated RAW264.7 macrophages; type: cell-based; conditions: RAW264.7, 1.6-50 μM, 2 hours pre-incubation, 100 ng/ml LPS 3 hours, relative to vehicle only control, FIG. 2
Protocol: RAW264.7 macrophages were seeded at a density of 100,000 cells/well in a 96-well plate in DMEM supplemented with 10% FBS and Penn/strep. 16 hours later, medium was aspirated and replaced with 90 uL/well of serum-free DMEM. Fatty acid amides were brought up in 100% EtOH to a concentration of 100 mM and then diluted 1:100 in 100% FBS for a 20× stock solution consisting of 1 mM compound and 1% EtOH. The fatty acid amide 20× stock solutions were diluted 1:2 in FBS supplemented with 1% EtOH for a 500 uM 10× stock solution. The 10× stock solutions were then serially diluted 1:2 in FBS supplemented with 1% EtOH and 10 μL of each dilution was added to the RAW246.7 cells to generate final concentrations of 50, 25, 12.5, 6.25, 3.12 and 1.6 μM. The compounds were allowed to pre-incubate for 2 hours before stimulation of 100 ng/ml LPS (10 μL of 1 μg/ml LPS is added to each well). Following 3 hours of LPS stimulation, cells were washed once in 1×PBS, aspirated dry, and flash frozen in liquid nitrogen. […] Transcript levels were then measured using ABI Taqman primer/probe assay kits, normalized to GAPDH using the deltaCt method, and the data expressed relative to vehicle only control. FIG. 2 summarizes the Hmox data on compound I-57 (cellular toxicity was assessed using alamar blue as indicator, abbreviated in the figure as AB). […]

mice lacking cystinosin = conditions: 200 or 400 mg/kg orally for 7, 30 or 60 days, greatest effect in liver and kidney after 60 days; cited from earlier work

Row | SMILES | IC50 (NF-κB) | also measured
1 | CC/C=C\C/C=C\C/C=C\C/C=C\C/C=C\CCCC(=O)NCCSSCCNC(C)=O [I-9, (5Z,8Z,11Z,14Z,17Z)-N-(2-((2-acetamidoethyl)disulfanyl)ethyl)icosa-5,8,11,14,17-pentaenamide] | – | reduction in the cystine level [1]: 68%
2 | CC/C=C\C/C=C\C/C=C\C/C=C\C/C=C\C/C=C\CCC(=O)N[C@@H](C)C(=O)N[C@@H]1[C@@H](O)[C@H](O)[C@@H](CO)O[C@H]1O [I-47, (4Z,7Z,10Z,13Z,16Z,19Z)-N-((S)-1-oxo-1-(((2R,3R,4R,5S,6R)-2,4,5-trihydroxy-6-(hydroxymethyl)tetrahydro-2H-pyran-3-yl)amino)propan-2-yl)docosa-4,7,10,13,16,19-hexaenamide] | > 200 µM | –
3 | CC/C=C\C/C=C\C/C=C\C/C=C\C/C=C\CCCC(=O)NCCOCCOCCOC [I-57, (5Z,8Z,11Z,14Z,17Z)-N-(2-(2-(2-methoxyethoxy)ethoxy)ethyl)icosa-5,8,11,14,17-pentaenamide] | < 50 µM | IL-1β gene expression (IL-1β): decrease; Hmox gene expression (Hmox1): upregulation
4 | NCCS [cysteamine, reference compound] | – | reduction in the cystine level [1]: 45%; cystine levels of tissues (mice lacking cystinosin): reduce cystine levels of all tissues tested

Further lines, with some results ahead:

Row | IC50 (NF-κB) | SMILES | also measured
5 | > 200 µM | CC/C=C\C/C=C\C/C=C\C/C=C\C/C=C\C/C=C\CCC(=O)O [DHA, all-cis-4,7,10,13,16,19-docosahexaenoic acid, reference compound] | –
6 | > 200 µM | CC/C=C\C/C=C\C/C=C\C/C=C\C/C=C\CCCC(=O)O [EPA, all-cis-5,8,11,14,17-eicosapentaenoic acid, reference compound] | –
7 | < 200 µM | CC/C=C\C/C=C\C/C=C\C/C=C\C/C=C\C/C=C\CCC(=O)Nc1nc2c(s1)C[C@H](NCCC)CC2 [I-21, (4Z,7Z,10Z,13Z,16Z,19Z)-N-((R)-6-(propylamino)-4,5,6,7-tetrahydrobenzo[d]thiazol-2-yl)docosa-4,7,10,13,16,19-hexaenamide] | –
8 | < 50 µM | CC/C=C\C/C=C\C/C=C\C/C=C\C/C=C\C/C=C\CCC(=O)N[C@H](C(=O)N[C@@H]1[C@@H](O)[C@H](O)[C@@H](CO)O[C@H]1O)C(C)C [I-48, (4Z,7Z,10Z,13Z,16Z,19Z)-N-((S)-3-methyl-1-oxo-1-(((2R,3R,4R,5S,6R)-2,4,5-trihydroxy-6-(hydroxymethyl)tetrahydro-2H-pyran-3-yl)amino)butan-2-yl)docosa-4,7,10,13,16,19-hexaenamide] | –
9 | < 50 µM | CC/C=C\C/C=C\C/C=C\C/C=C\C/C=C\C/C=C\CCC(=O)N[C@@H](CC(C)C)C(=O)N[C@@H]1[C@@H](O)[C@H](O)[C@@H](CO)O[C@H]1O [I-49, (4Z,7Z,10Z,13Z,16Z,19Z)-N-((S)-4-methyl-1-oxo-1-(((2R,3R,4R,5S,6R)-2,4,5-trihydroxy-6-(hydroxymethyl)tetrahydro-2H-pyran-3-yl)amino)pentan-2-yl)docosa-4,7,10,13,16,19-hexaenamide] | –
10 | < 50 µM | CC/C=C\C/C=C\C/C=C\C/C=C\C/C=C\C/C=C\CCC(=O)NCCOCCOCCOC [I-52, (4Z,7Z,10Z,13Z,16Z,19Z)-N-(2-(2-(2-methoxyethoxy)ethoxy)ethyl)docosa-4,7,10,13,16,19-hexaenamide] | –

— patent US20170073305A1, “FATTY ACID AMIDES, COMPOSITIONS AND METHODS OF USE” (Catabasis Pharmaceuticals, Inc., priority 2011, published 2017)
